Results: patent US9157077B2, “Aminopyrimidine kinase inhibitors” (Jasco Pharmaceuticals, LLC, priority 2009, dated 2015)
Like-named read-outs stand apart in the source and are kept apart here.

Tests used:
[1] = target: T1, Enzyme (kinases of Table 30) (Homo sapiens, UniProt P68400); assay: IC50 of Compound (nM) (ATP present at Km of enzyme), Table 30; format: biochemical; details: CK2(h), ATP present at Km of enzyme
T1 construct: IC50 of Compound, CK2(h); other: CK2(h), ATP present at Km of enzyme

[2] = target: Enzyme (kinases of Table 30) (Homo sapiens, UniProt P11309); assay: as above; format: biochemical
[3] = target: Enzyme (kinases of Table 30) (Homo sapiens, UniProt Q9P1W9); assay: as above; format: biochemical
[4] = target: Enzyme (kinases of Table 30) (Homo sapiens, UniProt Q86V86); assay: as above; format: biochemical
[5] = system: cell lines; assay: Selected cell proliferation inhibition data: cytotoxicity and IC50 determination (MTS/PMS, 72 hours), Tables 27 and 28; format: cell-based; details: Homo sapiens; for inhibition at 30 µM: 30 μM compound; for IC50: 72 hours, MTS
Protocol: Selected Cell Proliferation Inhibition Data
All cells were cultured in media supplemented with 10% FBS except for which are marked specially, in the temperature of 37° C., 5% CO2 and 95% humidity. All culture media were purchased from GIBCO (USA, IMDM Cat. 12200-036; RPMI Medium 1640 Cat. 31800-022; 2-mercaptoethanol Cat. 21985-023).
• CellTiter 96® AQueous MTS reagent powder (Cat. No.: G11 12, Promega. Store MTS Reagent Powder desiccated at 4° C. protected from light.) • Phenazine methosulfate (PMS) (Product No.: P9625, SIGMA. Store PMS Powder desiccated at 4° C. protected from light.) Preparation of PMS Solution:
The following protocol is recommended for the preparation of 21 mL of MTS solution (sufficient for ten 96-well plates). • a. Select a light-protected container or wrap a container with foil. • b. Add 21 mL of DPBS to the container. • c. Weigh out 42 mg of MTS Reagent Powder and add to DPBS. • d. Mix at moderate speed on a magnetic stir plate for 15 minutes or until the MTS is completely dissolved. • e. Measure the pH of the MTS solution. The optimum pH is between pH 6.0 to 6.5. If the solution is above pH 6.5, adjust to pH 6.5 with 1N HC1. • f. Filter-sterilize the MTS solution through a 0.2 μm filter into a sterile, light protected container. • g. Store the MTS solution at −20° C., protected from light. Preparation of the Mixture of MTS/PMS: • a. In order to prepare reagents sufficient for one 96-well plate containing cells cultured in a 100 μL volume, thaw the MTS solution and the PMS solution. It should take approximately 90 minutes at room temperature or 10 minutes in a 37° C. water bath to completely thaw the 20 mL size of MTS solution. […] Remove 2.0 mL of MTS solution from the amber reagent bottle using aseptic technique and transfer to a test tube. • c. Add 100 μL of PMS solution to the 2.0 mL of MTS solution immediately before addition to the culture plate containing cells. • d. Gently swirl the tube to ensure complete mixing of the combined MTS/PMS solution. Equipment:
• 1. The cells were harvested respectively during the logarithmic growth period and counted with hemocytometer. The cell viability was over 98% by trypan blue exclusion. • 2. Cell concentrations were adjusted to 2.22×10^5 or 1.11×10^5 or 5.56×10^4 cells/mL with respective medium. • 3. 90 μL cell suspensions were added to 96-well plates (triplicates for each cell concentration), the final cell densities were 2×10^4 or 1×10^4 or 5×10^3 cells/well. The density of 5×10^3 cells/well was used for the first test. The appropriate cell density was determined and adjusted according to the results of the first test. • 4. The next day, test article or positive drugs were dissolved with DMSO as stock solution at the concentration of 20 mM. • 5. 10 μL drug solution was dispensed in each well (triplicate for each drug concentration). • 6. Plates were cultured for another 72 hours, then measured by means of MTS assay. • 7. MTS/PMS solution was prepared immediately prior to use. 20 μL of the mixture was introduced into each well of the 96-well assay plate containing 100 μL culture medium. (The final reaction volume was 120 μL). • 8. Plate was incubated for 1-4 hours at 37° C. in a humidified 5% CO2 atmosphere. • 9. Absorbance at 490 nm was recorded using SpectraMAX Plus microplate spectrophotometer. Data Analysis:
The software of GraphPad Prism version 5 was used to calculate IC50. The graphical curves were fitted using a nonlinear regression model with a sigmoidal dose.

[6] = Pim-1(h), ATP present at Km of enzyme, read-out: IC50 of Compound, Pim-1(h)
[7] = Pim-2(h), ATP present at Km of enzyme, read-out: IC50 of Compound, Pim-2(h)
[8] = Pim-3(h), ATP present at Km of enzyme, read-out: IC50 of Compound, Pim-3(h)

T1 sequence (P68400 whole entry): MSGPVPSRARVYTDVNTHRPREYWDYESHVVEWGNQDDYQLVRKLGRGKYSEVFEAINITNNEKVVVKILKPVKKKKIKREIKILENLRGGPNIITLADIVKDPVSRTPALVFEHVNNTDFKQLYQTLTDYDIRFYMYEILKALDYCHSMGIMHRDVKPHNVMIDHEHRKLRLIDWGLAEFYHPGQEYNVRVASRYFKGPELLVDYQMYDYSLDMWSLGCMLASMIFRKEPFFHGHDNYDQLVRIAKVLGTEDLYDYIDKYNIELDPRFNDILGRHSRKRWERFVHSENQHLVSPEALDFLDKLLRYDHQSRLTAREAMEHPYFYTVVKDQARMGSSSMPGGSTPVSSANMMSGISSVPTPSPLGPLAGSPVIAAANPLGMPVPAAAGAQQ
Sequence of Enzyme (kinases of Table 30) (Homo sapiens, UniProt Q9P1W9) (Q9P1W9 whole entry): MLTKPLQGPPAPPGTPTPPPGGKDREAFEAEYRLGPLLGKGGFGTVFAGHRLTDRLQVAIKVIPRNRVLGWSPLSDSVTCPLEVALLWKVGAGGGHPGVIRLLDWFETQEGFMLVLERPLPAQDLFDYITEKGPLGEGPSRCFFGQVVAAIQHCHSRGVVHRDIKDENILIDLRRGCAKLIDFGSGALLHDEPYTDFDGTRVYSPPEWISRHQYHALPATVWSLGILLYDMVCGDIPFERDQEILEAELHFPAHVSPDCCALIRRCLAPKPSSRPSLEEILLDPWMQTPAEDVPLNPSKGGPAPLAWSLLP
Sequence of Enzyme (kinases of Table 30) (Homo sapiens, UniProt P11309) (P11309 whole entry): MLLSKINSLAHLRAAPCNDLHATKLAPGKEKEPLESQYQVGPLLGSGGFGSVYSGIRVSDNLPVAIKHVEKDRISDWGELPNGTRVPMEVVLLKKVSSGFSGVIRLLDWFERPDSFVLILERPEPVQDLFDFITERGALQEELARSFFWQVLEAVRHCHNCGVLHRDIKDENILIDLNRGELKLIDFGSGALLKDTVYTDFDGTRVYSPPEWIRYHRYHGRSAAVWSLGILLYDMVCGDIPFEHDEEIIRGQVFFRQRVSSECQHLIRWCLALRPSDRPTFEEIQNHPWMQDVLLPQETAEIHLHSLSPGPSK

Work on `O=C1NC(=O)/C(=C/c2ccnc(N3CCC(CCO)CC3)n2)S1` [compound 106] yielded an IC50 [1] of 361 nM, an IC50 [2, 6] of 166 nM and an IC50 [3, 7] of 127 nM. For the same compound, the IC50 [4, 8] was 298 nM.

In the case of `CC1CC(C)CN(c2nccc(/C=C3\SC(=O)NC3=O)n2)C1` (stereo not drawn) [compound 99], the IC50 [2, 6] is reported as 137 nM, the IC50 [3, 7] is reported as 18 nM and the IC50 [4, 8] is reported as 199 nM.

In the case of `O=C1NC(=O)/C(=C/c2ccnc(N3CCC(CNCc4cccc(-c5cccs5)n4)CC3)n2)S1` [compound 205], the IC50 [2, 6] is reported as 54 nM, the IC50 [3, 7] is reported as 199 nM and the IC50 [4, 8] is reported as 38 nM.

`O=C1NC(=O)/C(=C/c2ccnc(N3CCC(CNCc4ccncc4)CC3)n2)S1` [compound 177] gave an IC50 [1] of 705 nM, an IC50 [2, 6] of 96 nM and an IC50 [3, 7] of 87 nM. For the same compound, the IC50 [4, 8] was 22 nM.

For `O=C1NC(=O)/C(=C/c2ccnc(N3CCC(CNCc4ccc5ccccc5n4)CC3)n2)S1` [compound 180], the IC50 [2, 6] was 13 nM, the IC50 [3, 7] was 15 nM and the IC50 [4, 8] was 15 nM.

With `O=C1NC(=O)/C(=C/c2ccnc(N3CCC(CNCc4ccc5cc(F)ccc5n4)CC3)n2)S1` [compound 191] the IC50 [2, 6] was 6 nM, the IC50 [3, 7] was 23 nM and the IC50 [4, 8] was 5 nM.

Compound `CN(CC1CCNCC1)c1nccc(/C=C2\SC(=O)NC2=O)n1` [compound 151] has an IC50 [1] of 415 nM, an IC50 [2, 6] of 246 nM and an IC50 [3, 7] of 98 nM. For the same compound, the IC50 [4, 8] was 171 nM.

With `CN(c1nccc(/C=C2\SC(=O)NC2=O)n1)[C@H]1CCCNC1` [compound 143] the IC50 [1] was 66 nM, the IC50 [2, 6] was 20 nM and the IC50 [3, 7] was 5 nM. The IC50 [4, 8] was 3 nM.

`O=C1NC(=O)/C(=C/c2ccnc(N3CCC(CNCC4CCN4)CC3)n2)S1` (stereo not drawn) [compound 208] showed an IC50 [1] of 129 nM, an IC50 [2, 6] of 288 nM and an IC50 [3, 7] of 43 nM. For the same compound, the IC50 [4, 8] was 65 nM.

Compound `Nc1ccc2c(c1)CN(c1nccc(/C=C3\SC(=O)NC3=O)n1)CC2` [compound 90] has an IC50 [1] of 291 nM, an IC50 [2, 6] of 97 nM and an IC50 [3, 7] of 89 nM. For the same compound, the IC50 [4, 8] was 419 nM.

Compound `CN1CCC(CNc2nccc(/C=C3\SC(=O)NC3=O)n2)CC1` [compound 92] has an IC50 [1] of 186 nM, an IC50 [2, 6] of 628 nM and an IC50 [3, 7] of 228 nM. For the same compound, the IC50 [4, 8] was 31 nM.

Work on `O=C1NC(=O)/C(=C/c2ccnc(N3CCC(CNCc4cccc(-c5ccc(F)cc5)n4)CC3)n2)S1` [compound 204] yielded an IC50 [2, 6] of 99 nM, an IC50 [3, 7] of 217 nM and an IC50 [4, 8] of 109 nM.

For `O=C1NC(=O)/C(=C/c2ccnc(N3CCCC4NCCCC43)n2)S1` (stereo not drawn) [compound 155], the IC50 [2] was 19 nM, the IC50 [3] was 14 nM and the IC50 [4] was 9 nM.

For `CC1CCCN(c2nccc(/C=C3\SC(=O)NC3=O)n2)C1` (stereo not drawn) [compound 117], the IC50 [2, 6] was 164 nM, the IC50 [3, 7] was 50 nM and the IC50 [4, 8] was 436 nM.

Work on `O=C1NC(=O)/C(=C/c2ccnc(N3CCc4[nH]c5ccccc5c4C3)n2)S1` [compound 91] yielded an IC50 [1] of 222 nM, an IC50 [2, 6] of 255 nM and an IC50 [3, 7] of 127 nM. The IC50 [4, 8] was 1000 nM.

In the case of `O=C1NC(=O)/C(=C/c2ccnc(N3CCC(CNc4ccc5ccccc5n4)CC3)n2)S1` [compound 219], the IC50 [1] is reported as 476 nM, the IC50 [2, 6] is reported as 475 nM and the IC50 [3, 7] is reported as 146 nM. For the same compound, the IC50 [4, 8] was 249 nM.

`O=C1NC(=O)/C(=C/c2ccnc(N[C@H]3CCCNC3)n2)S1` [compound 144] was tested, and the IC50 [1] was 23 nM, the IC50 [2, 6] was 78 nM and the IC50 [3, 7] was 18 nM. It also gave an IC50 [4, 8] of 9 nM.

`NCc1cccc(CNc2nccc(/C=C3\SC(=O)NC3=O)n2)c1` [compound 159] was tested, and the IC50 [2, 6] was over 1000 nM, the IC50 [3, 7] was 104 nM and the IC50 [4, 8] was 231 nM.

`O=C1NC(=O)/C(=C/c2ccnc(N3CCC(CNCc4ccccn4)CC3)n2)S1` [compound 172] showed an IC50 [2, 6] of 157 nM, an IC50 [3, 7] of 142 nM and an IC50 [4, 8] of 46 nM.

`O=C1NC(=O)/C(=C/c2ccnc(N3CCC(CO)CC3)n2)S1` [compound 98] showed an IC50 [1] of 422 nM, an IC50 [2, 6] of 204 nM and an IC50 [3, 7] of 136 nM. For the same compound, the IC50 [4, 8] was 169 nM.

Work on `Cc1cccc(CNCC2CCN(c3nccc(/C=C4\SC(=O)NC4=O)n3)CC2)n1` [compound 174] yielded an IC50 [2, 6] of 58 nM, an IC50 [3, 7] of 75 nM and an IC50 [4, 8] of 16 nM.

`O=C1NC(=O)/C(=C/c2ccnc(N3CCC(CNCc4cccnc4)CC3)n2)S1` [compound 176] was tested, and the IC50 [1] was 669 nM, the IC50 [2, 6] was 487 nM and the IC50 [3, 7] was 108 nM. The IC50 [4, 8] was 18 nM.

Work on `O=C1NC(=O)/C(=C/c2ccnc(NC3CNc4ccccc4C3)n2)S1` (stereo not drawn) [Example 140, (Z)-5-((2-((1,2,3,4-tetrahydroquinolin-3-yl)amino)pyrimidin-4-yl)methylene)thiazolidine-2,4-dione] yielded an inhibition at 30 µM ([5]; MV4-11 cell line, read-out: Percent inhibition at 30 μM of Compound, MV4-11) of 94.3%, an IC50 ([5]; MV4-11 cell line, read-out: IC50 values, MV4-11) of 5510 nM and an inhibition at 30 µM ([5]; NCI-H929 cell line, read-out: Percent inhibition at 30 μM of Compound, NCI-H929) of 96.7%. It also gave an IC50 ([5]; NCI-H929 cell line, read-out: IC50 values, NCI-H929) of 8840 nM, an inhibition at 30 µM ([5]; RPMI 8226 cell line, read-out: Percent inhibition at 30 μM of Compound, RPMI 8226) of 65.3% and an IC50 ([5]; RPMI 8226 cell line, read-out: IC50 values, RPMI 8226) of 11200 nM.

Work on `O=C1NC(=O)/C(=C/c2ccnc(NCC3CCNCC3)n2)S1` [compound 147] yielded an IC50 [1] of 134 nM, an IC50 [2, 6] of 258 nM and an IC50 [3, 7] of 90 nM. The IC50 [4, 8] was 31 nM.

In the case of `CCCCN(C)c1nccc(/C=C2\SC(=O)NC2=O)n1` [compound 87], the IC50 [1] is reported as 261 nM, the IC50 [2, 6] is reported as 295 nM and the IC50 [3, 7] is reported as 80 nM. The IC50 [4, 8] was 263 nM.

Compound `CN(c1nccc(/C=C2\SC(=O)NC2=O)n1)C1CCCCC1` [compound 119] has an IC50 [1] of 176 nM, an IC50 [2, 6] of 186 nM and an IC50 [3, 7] of 16 nM. For the same compound, the IC50 [4, 8] was 267 nM.

Work on `Cc1cc(CNCC2CCN(c3nccc(/C=C4\SC(=O)NC4=O)n3)CC2)c2ccccc2n1` [compound 181] yielded an IC50 [2, 6] of 79 nM, an IC50 [3, 7] of 44 nM and an IC50 [4, 8] of 34 nM.
